Test results reported in ChEMBL document CHEMBL1201862, “PubChem BioAssay data set” (2004).
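Where inhibition never reached the appropriate level, the endpoint shown equals the highest concentration tested. Otherwise, values were interpolated linearly from a five-concentration, 48-hour dose response in 96-well plates. At the GI50, growth is halved.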 Calls of active or inactive are those of the source. No stated cut-off is given here; in the data, active = GI50 up to about 1.1 µM and inactive = higher.

What was measured:
Test in all cases: NCI-60 cell line screen, 48 h
SK-MEL-2 = tested on: SK-MEL-2
Hs-578T = tested on: Hs-578T
OVCAR-4 = tested on: OVCAR-4
EKVX = tested on: EKVX
COLO 205 = tested on: COLO 205
SK-OV-3 = tested on: SK-OV-3
SNB-75 = tested on: SNB-75
Malme-3M = tested on: Malme-3M
MDA-MB-231 = tested on: MDA-MB-231
NCI-H226 = tested on: NCI-H226
TK-10 = tested on: TK-10
OVCAR-3 = tested on: OVCAR-3
SK-MEL-28 = tested on: SK-MEL-28
T47D = tested on: T47D
HOP-92 = tested on: HOP-92
UACC-257 = tested on: UACC-257
NCI-H522 = tested on: NCI-H522
SF-295 = tested on: SF-295
OVCAR-5 = tested on: OVCAR-5
MOLT-4 = tested on: MOLT-4
NCI-H23 = tested on: NCI-H23
UO-31 = tested on: UO-31
SNB-19 = tested on: SNB-19
HCT-15 = tested on: HCT-15
BT-549 = tested on: BT-549
KM12 = tested on: KM12
SF-268 = tested on: SF-268
SN12C = tested on: SN12C
LOX IMVI = tested on: LOX IMVI
A498 = tested on: A498
SR = tested on: SR
RXF 393 = tested on: RXF 393
K562 = tested on: K562
HCC 2998 = tested on: HCC 2998
HL-60 = tested on: HL-60
OVCAR-8 = tested on: OVCAR-8
UACC-62 = tested on: UACC-62
CAKI-1 = tested on: CAKI-1
HOP-62 = tested on: HOP-62
HCT-116 = tested on: HCT-116
SW-620 = tested on: SW-620
MCF7 = tested on: MCF7
ACHN = tested on: ACHN
MDA-MB-435 = tested on: MDA-MB-435
SK-MEL-5 = tested on: SK-MEL-5
A549 = tested on: A549
NCI/ADR-RES = tested on: NCI/ADR-RES
IGROV-1 = tested on: IGROV-1
786-0 = tested on: 786-0
SF-539 = tested on: SF-539
MDA-N = tested on: MDA-N
M14 = tested on: M14
U-251 = tested on: U-251
DU-145 = tested on: DU-145
HT-29 = tested on: HT-29
NCI-H460 = tested on: NCI-H460
PC-3 = tested on: PC-3
CCRF-CEM = tested on: CCRF-CEM
RPMI-8226 = tested on: RPMI-8226

## COc1cc(/C=C/C(=O)c2ccc(O)c(OC)c2)ccc1O
SK-MEL-2
  GI50: 20.3 µM (inactive)
Hs-578T
  GI50: 17.5 µM (inactive)
OVCAR-4
  GI50: 24.3 µM (inactive)
EKVX
  GI50: 12.3 µM (inactive)
COLO 205
  GI50: 20.1 µM (inactive)
SK-OV-3
  GI50: 13.4 µM (inactive)
SNB-75
  GI50: 24.8 µM (inactive)
Malme-3M
  GI50: 22.3 µM (inactive)
MDA-MB-231
  GI50: 29.1 µM (inactive)
NCI-H226
  GI50: 24.5 µM (inactive)
TK-10
  GI50: 46.8 µM (inactive)
OVCAR-3
  GI50: 18.7 µM (inactive)
SK-MEL-28
  GI50: 17.6 µM (inactive)
T47D
  GI50: 22.9 µM (inactive)
HOP-92
  GI50: 27.2 µM (inactive)
UACC-257
  GI50: 22.5 µM (inactive)
NCI-H522
  GI50: 14.5 µM (inactive)
SF-295
  GI50: 20.6 µM (inactive)
OVCAR-5
  GI50: 24.8 µM (inactive)

## Cc1c(O)c(OC2OC(CO)C(O)C(O)C2O)cc2c1CC[C@@H]1C2(C)C(=O)C[C@]2(C)[C@@H]([C@@](C)(O)C(O)CCC(C)(C)O)[C@H](O)C[C@@]12C (stereo not given in full)
MOLT-4
  GI50: > 100 µM (inactive)
NCI-H23
  GI50: > 100 µM (inactive)
SK-MEL-2
  GI50: > 100 µM (inactive)
UO-31
  GI50: > 100 µM (inactive)
SNB-19
  GI50: > 100 µM (inactive)
OVCAR-4
  GI50: > 100 µM (inactive)
EKVX
  GI50: > 100 µM (inactive)
HCT-15
  GI50: > 100 µM
BT-549
  GI50: > 100 µM (inactive)
KM12
  GI50: > 100 µM (inactive)
COLO 205
  GI50: > 100 µM (inactive)
SK-OV-3
  GI50: > 100 µM (inactive)
SF-268
  GI50: > 100 µM (inactive)
SN12C
  GI50: > 100 µM (inactive)
LOX IMVI
  GI50: > 100 µM (inactive)
A498
  GI50: > 100 µM (inactive)
SR
  GI50: > 100 µM (inactive)
RXF 393
  GI50: > 100 µM (inactive)
K562
  GI50: > 100 µM (inactive)
HCC 2998
  GI50: > 100 µM (inactive)
HL-60
  GI50: > 100 µM (inactive)
SNB-75
  GI50: > 100 µM (inactive)
OVCAR-8
  GI50: > 100 µM (inactive)
UACC-62
  GI50: > 100 µM (inactive)
CAKI-1
  GI50: > 100 µM (inactive)
Malme-3M
  GI50: > 100 µM (inactive)
HOP-62
  GI50: > 100 µM (inactive)
MDA-MB-231
  GI50: > 100 µM (inactive)
NCI-H226
  GI50: > 100 µM (inactive)
HCT-116
  GI50: > 100 µM (inactive)
SW-620
  GI50: > 100 µM (inactive)
MCF7
  GI50: > 100 µM (inactive)
TK-10
  GI50: > 100 µM (inactive)
ACHN
  GI50: > 100 µM (inactive)
OVCAR-3
  GI50: > 100 µM (inactive)
SK-MEL-28
  GI50: > 100 µM (inactive)
MDA-MB-435
  GI50: > 100 µM (inactive)
SK-MEL-5
  GI50: > 100 µM (inactive)
T47D
  GI50: > 100 µM (inactive)
A549
  GI50: > 100 µM (inactive)
HOP-92
  GI50: > 100 µM (inactive)
NCI/ADR-RES
  GI50: > 100 µM (inactive)
IGROV-1
  GI50: > 100 µM (inactive)
UACC-257
  GI50: > 100 µM (inactive)
786-0
  GI50: > 100 µM (inactive)
SF-539
  GI50: > 100 µM (inactive)
MDA-N
  GI50: > 100 µM (inactive)
NCI-H522
  GI50: > 100 µM (inactive)
M14
  GI50: > 100 µM (inactive)
SF-295
  GI50: > 100 µM (inactive)
U-251
  GI50: > 100 µM (inactive)
DU-145
  GI50: > 100 µM (inactive)
OVCAR-5
  GI50: > 100 µM (inactive)
HT-29
  GI50: > 100 µM (inactive)
NCI-H460
  GI50: > 100 µM (inactive)
PC-3
  GI50: > 100 µM (inactive)
CCRF-CEM
  GI50: > 100 µM (inactive)

## COc1ccc(/C=C2\N=C(SC)N(CN3CCCCC3)C2=O)cc1
MOLT-4
  GI50: > 100 µM (inactive)
NCI-H23
  GI50: > 100 µM (inactive)
SK-MEL-2
  GI50: > 100 µM (inactive)
UO-31
  GI50: > 100 µM (inactive)
Hs-578T
  GI50: > 100 µM (inactive)
SNB-19
  GI50: > 100 µM (inactive)
OVCAR-4
  GI50: > 100 µM (inactive)
EKVX
  GI50: > 100 µM (inactive)
HCT-15
  GI50: > 100 µM
KM12
  GI50: > 100 µM (inactive)
COLO 205
  GI50: > 100 µM (inactive)
SK-OV-3
  GI50: > 100 µM (inactive)
SF-268
  GI50: > 100 µM (inactive)
SN12C
  GI50: > 100 µM (inactive)
LOX IMVI
  GI50: > 100 µM (inactive)
A498
  GI50: 42.4 µM (inactive)
SR
  GI50: > 100 µM (inactive)
K562
  GI50: > 100 µM (inactive)
SNB-75
  GI50: > 100 µM (inactive)
OVCAR-8
  GI50: > 100 µM (inactive)
UACC-62
  GI50: > 100 µM (inactive)
Malme-3M
  GI50: > 100 µM (inactive)
HOP-62
  GI50: 58.7 µM (inactive)
MDA-MB-231
  GI50: > 100 µM (inactive)
NCI-H226
  GI50: > 100 µM (inactive)
HCT-116
  GI50: > 100 µM (inactive)
SW-620
  GI50: > 100 µM (inactive)
MCF7
  GI50: > 100 µM (inactive)
TK-10
  GI50: > 100 µM (inactive)
ACHN
  GI50: > 100 µM (inactive)
OVCAR-3
  GI50: > 100 µM (inactive)
SK-MEL-28
  GI50: > 100 µM (inactive)
MDA-MB-435
  GI50: > 100 µM (inactive)
SK-MEL-5
  GI50: > 100 µM (inactive)
RPMI-8226
  GI50: > 100 µM (inactive)
A549
  GI50: > 100 µM (inactive)
HOP-92
  GI50: 0.347 µM (active)
NCI/ADR-RES
  GI50: > 100 µM (inactive)
IGROV-1
  GI50: > 100 µM (inactive)
786-0
  GI50: > 100 µM (inactive)
MDA-N
  GI50: > 100 µM (inactive)
NCI-H522
  GI50: > 100 µM (inactive)
M14
  GI50: > 100 µM (inactive)
SF-295
  GI50: > 100 µM (inactive)
U-251
  GI50: > 100 µM (inactive)
DU-145
  GI50: > 100 µM (inactive)
OVCAR-5
  GI50: > 100 µM (inactive)
HT-29
  GI50: > 100 µM (inactive)
PC-3
  GI50: > 100 µM (inactive)

## Cc1c(O)c(OC2OC(CO)C(O)C(O)C2O)cc2c1CC[C@@H]1C2(C)C(=O)C[C@]2(C)[C@@H]([C@@](C)(O)C(=O)CCC(C)(C)O)[C@H](O)C[C@@]12C (stereo not given in full)
MOLT-4
  GI50: > 100 µM (inactive)
NCI-H23
  GI50: > 100 µM (inactive)
SK-MEL-2
  GI50: > 100 µM (inactive)
UO-31
  GI50: > 100 µM (inactive)
SNB-19
  GI50: > 100 µM (inactive)
OVCAR-4
  GI50: > 100 µM (inactive)
EKVX
  GI50: > 100 µM (inactive)
HCT-15
  GI50: > 100 µM
BT-549
  GI50: > 100 µM (inactive)
KM12
  GI50: > 100 µM (inactive)
COLO 205
  GI50: > 100 µM (inactive)
SK-OV-3
  GI50: > 100 µM (inactive)
SF-268
  GI50: > 100 µM (inactive)
SN12C
  GI50: > 100 µM (inactive)
A498
  GI50: > 100 µM (inactive)
SR
  GI50: > 100 µM (inactive)
RXF 393
  GI50: > 100 µM (inactive)
K562
  GI50: > 100 µM (inactive)
HCC 2998
  GI50: > 100 µM (inactive)
SNB-75
  GI50: > 100 µM (inactive)
OVCAR-8
  GI50: > 100 µM (inactive)
UACC-62
  GI50: > 100 µM (inactive)
CAKI-1
  GI50: > 100 µM (inactive)
Malme-3M
  GI50: > 100 µM (inactive)
HOP-62
  GI50: > 100 µM (inactive)
MDA-MB-231
  GI50: > 100 µM (inactive)
NCI-H226
  GI50: > 100 µM (inactive)
HCT-116
  GI50: > 100 µM (inactive)
SW-620
  GI50: > 100 µM (inactive)
MCF7
  GI50: > 100 µM (inactive)
TK-10
  GI50: > 100 µM (inactive)
ACHN
  GI50: > 100 µM (inactive)
OVCAR-3
  GI50: > 100 µM (inactive)
SK-MEL-28
  GI50: > 100 µM (inactive)
MDA-MB-435
  GI50: > 100 µM (inactive)
SK-MEL-5
  GI50: > 100 µM (inactive)
T47D
  GI50: > 100 µM (inactive)
A549
  GI50: > 100 µM (inactive)
HOP-92
  GI50: > 100 µM (inactive)
NCI/ADR-RES
  GI50: > 100 µM (inactive)
IGROV-1
  GI50: > 100 µM (inactive)
UACC-257
  GI50: > 100 µM (inactive)
786-0
  GI50: > 100 µM (inactive)
SF-539
  GI50: > 100 µM (inactive)
MDA-N
  GI50: > 100 µM (inactive)
NCI-H522
  GI50: > 100 µM (inactive)
M14
  GI50: > 100 µM (inactive)
SF-295
  GI50: > 100 µM (inactive)
U-251
  GI50: > 100 µM (inactive)
DU-145
  GI50: > 100 µM (inactive)
OVCAR-5
  GI50: > 100 µM (inactive)
HT-29
  GI50: > 100 µM (inactive)
NCI-H460
  GI50: > 100 µM (inactive)
PC-3
  GI50: > 100 µM (inactive)
CCRF-CEM
  GI50: > 100 µM (inactive)
